Results published in ChEMBL document CHEMBL1129258, “Synthesis and structure-activity relationships of 2-pyridones: a novel series of potent DNA gyrase inhibitors as antibacterial agents” (J Med Chem, 1996).
Values after ≈ are worked out from the molar mass of the structure shown.

Legend:
[1] = biological target: T1, DNA gyrase (Escherichia coli) (UniProt P0AES6+P0AES4); test: In vitro antibacterial activity against gram-negative organism Prov. stuartii CMX-640; assay type: functional; conditions: Providencia stuartii
[2] = biological target: T1, DNA gyrase (Escherichia coli); test: In vitro antibacterial activity against gram-negative organism […] ATCC 13048; assay type: functional; conditions: Enterobacter aerogenes
[3] = biological target: T1, DNA gyrase (Escherichia coli); test: In vitro antibacterial against gram-negative organism Escherichia coli JUHL; assay type: functional; conditions: Escherichia coli K-12
[4] = biological target: T1, DNA gyrase (Escherichia coli); test: In vitro antibacterial activity against gram-negative organism Klebsiella pneumoniae ATCC 8045; assay type: functional
[5] = biological target: T2, DNA gyrase (Staphylococcus aureus) (UniProt P0A0K8+P20831); test: In vitro antibacterial activity against gram-positive organism Staphylococcus aureus ATCC 6538p; assay type: functional
T2 sequence (P0A0K8 2-644 limits assumed): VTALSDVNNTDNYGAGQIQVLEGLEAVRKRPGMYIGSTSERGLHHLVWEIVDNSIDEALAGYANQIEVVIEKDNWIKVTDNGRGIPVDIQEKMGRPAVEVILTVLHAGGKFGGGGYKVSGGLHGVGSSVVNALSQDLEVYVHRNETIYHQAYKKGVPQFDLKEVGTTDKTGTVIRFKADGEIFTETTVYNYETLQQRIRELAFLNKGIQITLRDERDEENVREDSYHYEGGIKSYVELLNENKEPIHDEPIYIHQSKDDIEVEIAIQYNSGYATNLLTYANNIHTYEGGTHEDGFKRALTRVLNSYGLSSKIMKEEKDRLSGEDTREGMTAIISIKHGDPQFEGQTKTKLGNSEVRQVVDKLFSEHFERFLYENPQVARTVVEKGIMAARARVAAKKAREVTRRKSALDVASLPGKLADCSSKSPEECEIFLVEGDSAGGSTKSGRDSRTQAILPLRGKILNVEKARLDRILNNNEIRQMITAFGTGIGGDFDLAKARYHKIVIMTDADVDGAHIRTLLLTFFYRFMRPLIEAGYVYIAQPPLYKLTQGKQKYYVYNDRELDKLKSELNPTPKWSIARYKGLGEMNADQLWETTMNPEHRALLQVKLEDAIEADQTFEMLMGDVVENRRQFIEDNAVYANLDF
T2 sequence (P20831 whole entry partner): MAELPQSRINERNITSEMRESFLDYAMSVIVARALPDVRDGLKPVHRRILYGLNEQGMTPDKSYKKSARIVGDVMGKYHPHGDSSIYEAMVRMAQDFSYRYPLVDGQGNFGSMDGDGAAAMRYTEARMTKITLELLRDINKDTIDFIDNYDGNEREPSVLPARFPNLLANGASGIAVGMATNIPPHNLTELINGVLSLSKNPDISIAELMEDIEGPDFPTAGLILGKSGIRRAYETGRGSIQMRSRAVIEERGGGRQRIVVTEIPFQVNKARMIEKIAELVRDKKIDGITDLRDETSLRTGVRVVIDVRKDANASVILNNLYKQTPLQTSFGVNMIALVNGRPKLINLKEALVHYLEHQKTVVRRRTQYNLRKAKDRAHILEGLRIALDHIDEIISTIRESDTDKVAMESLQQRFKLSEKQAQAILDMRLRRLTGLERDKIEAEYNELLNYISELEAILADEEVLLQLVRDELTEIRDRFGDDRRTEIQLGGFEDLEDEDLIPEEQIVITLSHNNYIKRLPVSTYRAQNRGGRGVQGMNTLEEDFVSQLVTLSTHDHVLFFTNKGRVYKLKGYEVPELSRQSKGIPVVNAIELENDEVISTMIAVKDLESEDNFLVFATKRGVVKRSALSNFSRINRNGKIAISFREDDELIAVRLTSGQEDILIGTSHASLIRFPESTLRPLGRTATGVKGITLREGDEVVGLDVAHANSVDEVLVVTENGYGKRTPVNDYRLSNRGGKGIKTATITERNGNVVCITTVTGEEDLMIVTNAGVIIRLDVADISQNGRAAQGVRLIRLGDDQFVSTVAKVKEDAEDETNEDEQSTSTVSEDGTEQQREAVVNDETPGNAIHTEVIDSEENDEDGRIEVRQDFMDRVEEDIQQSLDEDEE

[6] = In vitro antibacterial activity against gram-negative organism Pseudomonas aeruginosa 5007; assay type: functional
[7] = biological target: T1, DNA gyrase (Escherichia coli); test: In vitro antibacterial activity against gram-positive organism Streptococcus bovis A-5169; assay type: functional; conditions: Streptococcus equinus
[8] = biological target: T1, DNA gyrase (Escherichia coli); test: In vitro antibacterial activity against gram-positive organism Enterococcus faecium ATCC 8043; assay type: functional
Streptococcus pyogenes = test: In vitro antibacterial activity against gram-positive organism Streptococcus pyogenes EES61; assay type: functional; conditions: Streptococcus pyogenes; read-out: MIC
[9] = biological target: T2, DNA gyrase (Staphylococcus aureus); test: In vitro antibacterial activity against gram-positive organism Staphylococcus aureus NCTC-10649M; assay type: functional
[10] = In vitro antibacterial activity against gram-negative organism Pseudomonas aeruginosa DPHD-2862; assay type: functional; conditions: Pseudomonas aeruginosa; read-out: MIC
[11] = biological target: T2, DNA gyrase (Staphylococcus aureus); test: In vitro antibacterial activity against gram-positive organism Staphylococcus aureus 1775; assay type: functional
[12] = biological target: T1, DNA gyrase (Escherichia coli); conditions: Escherichia coli K-12
Description: Concentration which causes 50% of the gyrase (Escherichia coli H560)-mediated maximal DNA cleavage.

[13] = Pseudomonas aeruginosa, read-out: MIC

Structure (SMILES) | MIC [1] [µg/mL] | MIC [2] [µg/mL] | MIC [3] [µg/mL] | MIC [4] [µg/mL] | MIC [5] [µg/mL] | MIC [6, 13] [µg/mL] | MIC [7] [µg/mL] | MIC [8] [µg/mL] | MIC (Streptococcus pyogenes) [µg/mL] | MIC [9] [µg/mL] | MIC [10] [µg/mL] | MIC [11] [µg/mL] | CC50 [12] [µg/mL] | MIC [6] [pug ml-1]
Cc1c(N2CCCNCC2)c(F)cn2c(=O)c(C(=O)O)cc(C3CC3)c12 | 3.1 (≈ 8.63 µM) | 0.1 (≈ 0.278 µM) | 0.02 (≈ 0.0556 µM) | 0.05 (≈ 0.139 µM) | 0.1 (≈ 0.278 µM) | 0.78 (≈ 2.17 µM) | 0.78 (≈ 2.17 µM) | 0.2 (≈ 0.556 µM) | 0.39 (≈ 1.09 µM) | 0.2 (≈ 0.556 µM) | 6.2 (≈ 17.3 µM) | 25 (≈ 69.6 µM) | – | –
O=C(O)c1cc(C2CC2)c2nc(N3CCOCC3)c(F)cn2c1=O | > 100 | 3.1 (≈ 9.3 µM) | 3.1 (≈ 9.3 µM) | 0.39 (≈ 1.17 µM) | 6.2 (≈ 18.6 µM) | 25 (≈ 75 µM) | > 100 | > 100 | > 100 | 6.2 (≈ 18.6 µM) | – | > 100 | 1.5 (≈ 4.5 µM) | –
CN1CCN(c2nc3c(C4CC4)cc(C(=O)O)c(=O)n3cc2F)CC1 | 50 (≈ 144 µM) | 0.39 (≈ 1.13 µM) | 0.2 (≈ 0.577 µM) | 0.1 (≈ 0.289 µM) | 1.56 (≈ 4.5 µM) | 3.1 (≈ 8.95 µM) | 50 (≈ 144 µM) | 12.5 (≈ 36.1 µM) | 12.5 (≈ 36.1 µM) | 0.78 (≈ 2.25 µM) | > 100 | 100 (≈ 289 µM) | 1 (≈ 2.89 µM) | –
Cc1c(F)c(N2CCC(N)C2)cc2c(C3CC3)cc(C(=O)O)c(=O)n12 (stereo unspecified) | 12.5 (≈ 36.2 µM) | 0.39 (≈ 1.13 µM) | 0.2 (≈ 0.579 µM) | 0.1 (≈ 0.29 µM) | 0.78 (≈ 2.26 µM) | 1.56 (≈ 4.52 µM) | 6.2 (≈ 18 µM) | 6.2 (≈ 18 µM) | 3.1 (≈ 8.98 µM) | 1.56 (≈ 4.52 µM) | 100 (≈ 290 µM) | 50 (≈ 145 µM) | 10 (≈ 29 µM) | –
O=C(O)c1cc(C2CC2)c2nc(N3CCNCC3)c(F)cn2c1=O | 12.5 (≈ 37.6 µM) | 0.05 (≈ 0.15 µM) | 0.05 (≈ 0.15 µM) | 0.05 (≈ 0.15 µM) | 0.78 (≈ 2.35 µM) | 0.39 (≈ 1.17 µM) | 12.5 (≈ 37.6 µM) | 12.5 (≈ 37.6 µM) | 12.5 (≈ 37.6 µM) | 1.56 (≈ 4.69 µM) | 100 (≈ 301 µM) | 50 (≈ 150 µM) | 2 (≈ 6.02 µM) | –
O=C(O)c1cc(C2CC2)c2cc(N3CCNCC3)c(F)cn2c1=O | 1.56 (≈ 4.71 µM) | 0.05 (≈ 0.151 µM) | 0.01 (≈ 0.0302 µM) | 0.01 (≈ 0.0302 µM) | 0.2 (≈ 0.604 µM) | 0.39 (≈ 1.18 µM) | 3.1 (≈ 9.36 µM) | 0.78 (≈ 2.35 µM) | 1.56 (≈ 4.71 µM) | 0.39 (≈ 1.18 µM) | 25 (≈ 75.4 µM) | 50 (≈ 151 µM) | 0.15 (≈ 0.453 µM) | –
CCc1c(N2CCC(N)C2)c(F)cn2c(=O)c(C(=O)O)cc(C3CC3)c12 (stereo unspecified) | 3.1 (≈ 8.63 µM) | 0.39 (≈ 1.09 µM) | 0.2 (≈ 0.556 µM) | 0.1 (≈ 0.278 µM) | 0.1 (≈ 0.278 µM) | 1.56 (≈ 4.34 µM) | – | 0.39 (≈ 1.09 µM) | 0.39 (≈ 1.09 µM) | 0.1 (≈ 0.278 µM) | 50 (≈ 139 µM) | 6.2 (≈ 17.3 µM) | – | –
Cc1c(NCCN)c(F)cn2c(=O)c(C(=O)O)cc(C3CC3)c12 | 6.2 (≈ 19.4 µM) | 0.39 (≈ 1.22 µM) | 0.2 (≈ 0.626 µM) | 0.2 (≈ 0.626 µM) | 0.78 (≈ 2.44 µM) | 0.78 (≈ 2.44 µM) | 12.5 (≈ 39.1 µM) | 3.1 (≈ 9.71 µM) | 6.2 (≈ 19.4 µM) | 1.56 (≈ 4.89 µM) | 50 (≈ 157 µM) | > 100 | 0.8 (≈ 2.51 µM) | –
COc1ccc(-c2cc(C(=O)O)c(=O)n3cc(F)c(N4CCC(N)C4)nc23)cc1 (stereo unspecified) | > 100 | 25 (≈ 62.8 µM) | 25 (≈ 62.8 µM) | 12.5 (≈ 31.4 µM) | 50 (≈ 126 µM) | 100 (≈ 251 µM) | 25 (≈ 62.8 µM) | 25 (≈ 62.8 µM) | 25 (≈ 62.8 µM) | 50 (≈ 126 µM) | 50 (≈ 126 µM) | 100 (≈ 251 µM) | – | –
CCc1cc(C(=O)O)c(=O)n2cc(F)c(N3CCC(N)C3)c(C)c12 (stereo unspecified) | 0.78 (≈ 2.34 µM) | 0.05 (≈ 0.15 µM) | 0.01 (≈ 0.03 µM) | 0.02 (≈ 0.06 µM) | 0.1 (≈ 0.3 µM) | 0.2 (≈ 0.6 µM) | 0.78 (≈ 2.34 µM) | 0.2 (≈ 0.6 µM) | 0.39 (≈ 1.17 µM) | 0.1 (≈ 0.3 µM) | 12.5 (≈ 37.5 µM) | 12.5 (≈ 37.5 µM) | 3.2 (≈ 9.6 µM) | –
Cc1c(N2CC(N)C2)c(F)cn2c(=O)c(C(=O)O)cc(C3CC3)c12 | 1.56 (≈ 4.71 µM) | 0.05 (≈ 0.151 µM) | 0.01 (≈ 0.0302 µM) | 0.01 (≈ 0.0302 µM) | 0.1 (≈ 0.302 µM) | – | 0.78 (≈ 2.35 µM) | 0.2 (≈ 0.604 µM) | 0.39 (≈ 1.18 µM) | 0.05 (≈ 0.151 µM) | 12.5 (≈ 37.7 µM) | 6.2 (≈ 18.7 µM) | 1.5 (≈ 4.53 µM) | 0.2
CN1CCN(c2nc3c(-c4ccc(F)cc4)cc(C(=O)O)c(=O)n3cc2F)CC1 | 25 (≈ 62.4 µM) | 0.78 (≈ 1.95 µM) | 0.39 (≈ 0.974 µM) | 0.2 (≈ 0.5 µM) | 0.39 (≈ 0.974 µM) | 6.2 (≈ 15.5 µM) | 25 (≈ 62.4 µM) | 25 (≈ 62.4 µM) | 6.2 (≈ 15.5 µM) | 0.39 (≈ 0.974 µM) | – | 25 (≈ 62.4 µM) | – | –
Cc1c(N2CCC(C)(N)C2)c(F)cn2c(=O)c(C(=O)O)cc(C3CC3)c12 (stereo unspecified) | 0.78 (≈ 2.17 µM) | 0.05 (≈ 0.139 µM) | 0.01 (≈ 0.0278 µM) | 0.01 (≈ 0.0278 µM) | 0.02 (≈ 0.0556 µM) | 0.2 (≈ 0.556 µM) | 0.1 (≈ 0.278 µM) | 0.1 (≈ 0.278 µM) | 0.1 (≈ 0.278 µM) | 0.05 (≈ 0.139 µM) | 6.2 (≈ 17.3 µM) | 1.56 (≈ 4.34 µM) | – | –
